Test [1] relates to IL-1β production in murine peritoneal macrophages (PECs). The experiment in a line: IL-1β secretion (ELISA) by primed, ATP-pulsed peritoneal macrophages (PECs). In kind it is cell-based, mouse. As to the method:
FIGS. 1A-1J illustrate the finding that adenosine stimulates IL-1β production in NLRP3 inflammasome-dependent manner. Murine peritoneal macrophages (PECs) were obtained from wild type (WT) mice (FIGS. 1A-1D, 1F-1I), Il1r−/− (FIG. 1E) or Nlrp3−/−, ASC−/−, P2xr7−/−, or Caspase-1−/− mice (FIG. 1J) and were primed with LPS for 16 hours. FIG. 1A: This was followed by treatment for 1 hour with adenosine (Ad, 100 μM), adenosine deaminase inhibitor (EHNA, 10 μM), adenosine deaminase (ADA, 10 U ml^−1), ATP diphosphohydrolase (Apyrase, 10 U ml^−1), or erythro-9-(2-hydroxy-3-nonyl) adenine (EHNA, 10 μM) (FIGS. 1B, 1F-1J)). Pan adenosine agonist (NECA, 1 μM, 10 μM) (FIGS. 1C, 1E), or (FIGS. 1D, 1I) by NECA for 1 and 6 hours, and were then pulsed with ATP for 20 min. Enzyme-linked immunosobent assay (ELISA) of IL-1β, TNF-α, IL-10 and IFN-γ secretion were measured in cell supernatants after pulsing with ATP for 5 hours (FIGS. 1A, 1C-1E, 1J) or indicated time-course (FIGS. 1B, 1G-1I). LDH assay was performed after pulsing with ATP as indicated time-course (FIG. 1F). Data are expressed as the mean±SD from at least three independent experiments. *p<0.05 determined by Student's t-test.
C57BL/6 mice were purchased from the National Cancer Institute. ASC−/−, Caspase-1−/−, Nlrp3−/− and P2xr7−/− mice have been described (Rock et al., 2010, Annu Rev Immunol. 28:321-42). A2ora2a flox/flox mice and LysMcre mice were purchased from Jackson Laboratories. HIF-1a flox/flox mice were kindly provided by Dr. Ruslan M Medzhitov (Yale University). 7- to 12-week-old males with a variety of genetic manipulations were used in most experiments. The number of mice in each experimental group was chosen based on previous experience with these experimental models. Mouse peritoneal macrophages (PECs) were isolated by peritoneal lavage 3 days after intraperitoneal injection of 4% thioglycollate solution (B2551, Fluka,). Cells were plated at the density of 3×10^6 cells in 12-well dishes and non-adherent cells were removed after 3 h. Cells primed overnight with 100 ng/ml LPS or 10 ng/ml Pam3CSK4 were treated with various chemicals and followed stimulation. Cells were cultured in DMEM medium complemented with 10% FBS, penicillin/streptomycin and L-glutamine. Mouse bone marrow derived macrophages were isolated from bone marrow cells, and were differentiated for 7 days in complete RPMI-1640 medium supplemented with 2 mM L-glutamine, 100 U/ml penicillin, 100 μg/ml streptomycin, 50 μM 2-mercaptoethanol (all from Invitrogen), 10% heat-inactivated FBS and 20 ng/ml M-CSF (PeproTech). Kupffer cells (KC) were isolated by the density gradient separation of Optiprep (Sigma), and then plates were gently washed and media was replenished after seeding cells for 2 hours to raise KC purity.
Primed PECs were both pulsed for 20 min with 5 mM ATP or 10 μM nigericin, and left untreated until culture supernatants were collected. Secretion of IL-1β was determined by enzyme-linked immunoabsorbent assay (ELISA; R&D Systems).

Test [2] shares this test system. The description is as above. In kind it is cell-based, mouse. To be noted: LPS and monosodium urate (MSU) crystals.
The mark [3] stands for this setting: LPS-primed PECs pulsed with ATP.
Setting [4] is: PECs from A2A receptor deficient cells.

Entries after “also recorded” stand apart in the source; their conditions may differ.

Take `CCNC(=O)[C@H]1O[C@@H](n2cnc3c(N)nc(NCCc4ccc(CCC(=O)O)cc4)nc32)[C@H](O)[C@@H]1O` [CGS21680]: the IL-1β production result is “increase IL-1β production to a comparable degree to NECA and EHNA” in test [1] (setting [3]); “not increased” in test [1] (setting [4]).

`CCNC(=O)[C@H]1O[C@@H](n2cnc3c(N)ncnc32)[C@H](O)[C@@H]1O` [NECA, 5′-(N-ethylcarboxamido) adenosine]: the “IL-1β production in wild-type vs IL-1 receptor deficient macrophages” value in test [1] (LPS + ATP) is listed as “to a similar degree”. Besides, the IL-1β production entry in test [1] (setting [3]) is given as “stimulated an increase; also recorded: increased”; in test [1] (setting [4]) it was “not increased”; in test [2] it was “increased”. Also, the “IL-1β production by LPS and ATP” value in test [1] (macrophages lacking caspase-1, NLRP3, ASC or P2x7 receptor) was “did not result in significant production of IL-1β”.
